# Test results: patent publication US20050165070A1, “Compositions with a biostimulating activity” (priority 2002, published 2005)
# How the values were obtained:
# [1] = tested on: courgettes cv. Diamone; assay: Biostimulating activity on transplanted courgette seedlings in field, fruit yield; type: in vivo; details: for Fruit per lot: treatment repeated every 10 days, harvest June 11-August 27, average per lot; for Increase (%) of fruit per lot: with respect to non-treated Thesis F
# Description: The following examples are provided for merely illustrative purpose and in no way intend to limit the scope of the present invention.
# When the biological activity experimentally found is higher than the value of E, said activity should be considered as a synergic effect.
# An amount of 50 g of each compound under examination (thiazolidine-4-carboxylic acid (compound I) and N-acyl-thiazolidine-4-carboxylic acid (compound II)) were dispersed in water (800 cc) and vigorously stirred. An excess of 5%, with respect to the stoichiometric quantity, of sodium bicarbonate, was then added in portions. 150 g of a non-ionic surface-active agent were added to favour application to the leaves. The whole mixture was brought to a volume of 1 liter by the addition of water, in order to obtain solutions of each compound with a concentration of 50 g/liter.
# Assessment of the biostimulating activity of compound (I), compound (II) and their synergic mixture.
# Seedlings of courgettes cv. Diamone, sown and cultivated in a hot greenhouse, were transplanted in a field (May 11, Leggiuno, (Varese)—Italy).
# The theses were randomly arranged in lots with four repetitions for each thesis. Each lot consisted of six plants in rows situated at a distance of 1 meter from each other, and at a distance of 1 meter from each other in the same row.
# Weeding was performed before the transplant, using 1 kg/ha of trifluralin (volume 550 l/ha).
# At the moment transplanting, the seedlings have a common degree of vegetative development.
# In order to minimize transplant stress, the seedlings planted were treated respectively with: • Thesis A: with compound (I) (ATC) at a dose of 5 g/hl; • Thesis B: with compound (I) (ATC) at a dose of 10 g/hl; • Thesis C: with compound (II) (AATC) at a dose of 5 g/hl; • Thesis D: with compound (II) (AATC) at a dose of 10 g/hl; • Thesis E: with compound (I) (ATC) at a dose of 5 g/hl in a mixture with compound (II) (AATC) at a dose of 5 g/hl; • Thesis F: no biostimulating treatment.
# Said treatment was subsequently repeated every 10 days, in a preventive manner, in order to oppose any possible thermal or water stress or stress due to vegetative development. Harvesting was effected from June 11 to August 27, and the yield increases indicated in Table 1, were registered in the treated theses (A, B, C, D, E), with respect to the non-treated Thesis F. The yields are obtained from the average amount of fruit obtained in each lot during the above-mentioned harvesting period (June 11-August 27).
# [2] = tested on: peppers cv. Pathos; assay: Biostimulating effect on transplanted pepper seedlings in tunnel, production yield; type: in vivo; details: 10 g/hl; for Berries kg per lot: repeated every 10 days, harvest July 29-August 29; for Increase (%) of berries kg per lot: versus not treated Thesis E
# Description: The whole mixture was brought to a volume of 1 liter by the addition of water, in order to obtain solutions of each compound with a concentration of 50 g/liter. Determination of the amplification of the biostimulating effect obtained by applying compound (I) in the presence of a solution of proline. Seedlings of peppers cv. Pathos were transplanted in a tunnel (April 16, AT). The lots were distributed according to the random block scheme with 5 repetitions per thesis. Each repetition consisted of 15 plants. At the moment of transplanting, the seedlings have a common degree of vegetative development. […] Said treatment was subsequently repeated every 10 days, in a preventive manner, in order to oppose any possible thermal or water stress or stress due to vegetative development. Harvesting was effected from July 29 for the following 30 days, and a production increase was registered in theses B and D, with respect to theses A and C, as indicated in Table 2. The yields are obtained from the average production obtained during the above harvesting period (July 29-August 29).
Structure (SMILES),Fruit per lot ([1]; 5 g/hl),Increase (%) of fruit per lot ([1]; 5 g/hl),Fruit per lot ([1]; 10 g/hl),Increase (%) of fruit per lot ([1]; 10 g/hl),Berries kg per lot [2],Increase (%) of berries kg per lot [2]
"O=C(O)[C@@H]1CSCN1 [ATC, R-(−)-thiazolidine-4-carboxylic acid]",100,+3.1%,105,+8.2%,25.80 kg per lot,+4.5%
"CC(=O)N1CSCC1C(=O)O (stereo not drawn) [AATC, N-acetylthiazolidine-4-carboxylic acid]",102,+5.2%,109,+12.4%,26.40 kg per lot,+6.9%
